According to paper PMC12627933, “A First-In-Human Study of the SUMOylation Inhibitor Subasumstat in Patients with Advanced/Metastatic Solid Tumors or Relapsed/Refractory Hematologic Malignancies” (Cancer Research Communications, 2025):
Entries after “also recorded” stand apart in the source; their conditions may differ.

Tests used:
[1] = tested on: tumor microenvironment (TME); set-up: method as in PMID 37389981; settings: intratumor microdosing; cited from earlier work
[2] = tested on: advanced/metastatic solid tumors and relapsed/refractory hematologic malignancies; test: Clinical activity (RECIST v1.1 / Lugano criteria); assay type: in vivo, human; settings: for DCR: 95% CI; for Patients with best response of SD: 90 mg twice weekly
Description: Disease response and progression were assessed for up to 48 months using CT and/or MRI scans with intravenous contrast and ^18fluorodeoxyglucose-PET imaging according to RECIST v1.1 criteria for solid tumors or Lugano criteria for lymphoma response ([21]).
It was anticipated that approximately 70 DLT-evaluable patients would be enrolled for dose escalation. The safety analysis set included all patients who received at least one dose, even if incomplete, of subasumstat. The tumor response–evaluable set included patients who received at least one dose of subasumstat, had sites of measurable disease at baseline and one post-baseline disease assessment, or discontinued treatment because of symptomatic deterioration or death prior to post-baseline evaluation. The overall response rate (ORR) was defined as the proportion of patients who achieved complete response and partial response (PR) during the study. The disease control rate (DCR) was defined as the proportion of patients who achieved […] as per RECIST v1.1 for solid tumors or Lugano classification for lymphomas. Both ORR and DCR were estimated with two-sided 95% exact binomial confidence intervals (CI). Progression-free survival was summarized descriptively using the Kaplan–Meier method.

[3] = Dose-limiting toxicities in cycle 1 and determination of MTD/RP2D (phase I dose escalation); assay type: in vivo; settings: for n with DLTs during cycle 1: N = 6
Description: This study comprised two parts: a phase I dose escalation and a phase II dose expansion (Fig. 1). In the dose-escalation phase, patients were enrolled to receive subasumstat intravenously as a 1-hour (±10 minutes) infusion on days 1, 4, 8, and 11 of a 21-day cycle (biweekly schedule). […] Dose escalation was based on cohort with an adaptive design using Bayesian logistic regression modeling with overdose control. The starting dose of subasumstat was based on Good Laboratory Practice animal toxicity studies and supported by the estimation of a minimum anticipated biologically effective level. A detailed description of dose-limiting toxicities (DLT) is presented in the Supplementary Methods.
The occurrence of DLTs was assessed during cycle 1 (DLTs are described in the Supplementary Methods). Treatment-emergent adverse events (TEAE) were graded according to NCI Common Terminology Criteria for Adverse Events version 5.0, except for cytokine release syndrome (CRS), which was graded according to the American Society for Transplantation and Cellular Therapy Consensus Grading for CRS ([20]).
It was anticipated that approximately 70 DLT-evaluable patients would be enrolled for dose escalation. The safety analysis set included all patients who received at least one dose, even if incomplete, of subasumstat. […] The overall response rate (ORR) was defined as the proportion of patients who achieved complete response and partial response (PR) during the study. The disease control rate (DCR) was defined as the proportion of patients who achieved […] as per RECIST v1.1 for solid tumors or Lugano classification for lymphomas. […] Progression-free survival was summarized descriptively using the Kaplan–Meier method.
17. History of allogeneic tissue or solid organ transplant.
18. Second malignancy within the previous 3 years, except treated basal cell or localized squamous skin carcinomas, localized prostate cancer, cervical carcinoma in situ, resected colorectal adenomatous polyps, breast cancer in situ, or other malignancy for which the patient is not on active anticancer therapy.
19. Female patients who are lactating and breastfeeding or have a positive serum pregnancy test during the screening period or a positive urine pregnancy test on day 1 before first dose of study drug.
Definition of dose-limiting toxicities (DLTs) for phase I only
DLTs were defined as any AEs occurring in cycle 1 (unless considered unrelated to the study drug) with the following characteristics:
2. Nonfebrile grade 4 neutropenia (absolute neutrophil count [ANC] <0.5 ×
If myeloid growth factors are used, the event will be considered as DLT irrespective of the duration. […]
temperature of ≥38°C for ≥1 hour.
4. Grade 4 thrombocytopenia lasting ≥7 consecutive days. A platelet count <10
5. Grade 3 thrombocytopenia lasting longer than 14 days or accompanied by grade 2 bleeding or requiring transfusion.
6. Delay in the initiation of cycle 2 by ≥14 days due to a lack of adequate recovery of treatment-related hematological or nonhematologic toxicities.
7. Grade ≥3 nonhematologic toxicity with the following exceptions:
• Grade 3 arthralgia/myalgia that responds to nonsteroidal anti-inflammatory […]
• Grade 3 fatigue lasting fewer than 7 days.
• Grade 3 endocrine disorder that is managed with or without therapy and the patient is asymptomatic.
• Grade 3 or 4 inflammatory reaction attributed to a local antitumor […]
• Grade 3 infusion-related actions that resolves within 6 hours with appropriate clinical management.
• Grade 3 cytokine release syndrome that resolves to grade ≤1 in less than 7 days without end-organ damage.
• Asymptomatic laboratory changes (other than renal and hepatic laboratory values) that can be successfully supplemented (reversion of grade 4

[4] = cited from earlier work
[5] = phase II NSCLC expansion cohort
[6] = phase II cervical cancer expansion cohort

Structure (SMILES): Cc1sc(C(=O)c2cncnc2N[C@@H]2C[C@H](COS(N)(=O)=O)[C@@H](O)C2)cc1[C@@H]1NCCc2ccc(Cl)cc21 [subasumstat]
- Modulation of the TME [1]: modulate the TME from an immune-suppressive to an immune-permissive status
- Patients with confirmed PR ([2]; 99 response-evaluable patients, both phases, 40, 90 and 120 mg twice weekly): three
- Patients with confirmed PR ([2]; overall): 3%
- Best response of SD ([2]; overall, 26 patients): 26.3%
- DCR ([2]; overall, n = 29/99, 20.57–39.29): 29.3%
- DCR ([2]; phase I, n = 21/75, 18.24–39.56): 28%
- Median progression-free survival [2, 5]: 6.06 months
- Patients with best response of SD [2, 5]: four of seven
- Median progression-free survival [2, 6]: 3.78 months
- Patients with best response of SD [2, 6]: two of three
- DCR ([2]; phase II, n = 8/24, 15.63–55.32): 33%
- n with DLTs during cycle 1 ([3]; 60 mg BIW): 1
- Description of DLT ([3]; 60 mg BIW, subasumstat reduced to 40 mg BIW): Transient grade 3 ALT/AST
- n with DLTs during cycle 1 ([3]; 90 mg BIW): 1
- Description of DLT ([3]; 90 mg BIW, study treatment discontinued): Grade 3 pneumonitis
- n with DLTs during cycle 1 ([3]; 120 mg BIW): 2
- Description of DLT ([3]; 120 mg BIW, n = 1 each): Grade 3 stomatitis; also recorded: Grade 3 cognitive disorder
- Biologically / pharmacodynamically active dose ([3]; across a range of pharmacodynamic measures): ≥ 60 mg
- Patients reporting DLTs ([3]; phase I, 74 of 84 DLT-evaluable, all in twice weekly cohorts): four
- MTD ([3]; twice weekly (days 1, 4, 8, 11 of 21-day cycle), intravenous): 120 mg
- Recommended phase II dose (RP2D) ([3]; twice weekly, intravenous): 90 mg
- Lymphopenia ([4]; A20 lymphoma–bearing BALB/c mice): transient lymphopenia
- B-cell depletion ([4]; mouse model of pancreatic ductal adenocarcinoma): transient B-cell depletion
- Systemic toxicities ([4]; preclinical mouse models): No systemic toxicities were observed
